pIC50: −log10 of the molar value.

For one assay, the target named is T1, human V2 receptor (Homo sapiens, UniProt P30518).
T1 construct: expressed in transfected cells; host or cells: CHO K1 (ATCC) expressing firefly luciferase under a CRE-responsive promoter
In words: Cellular in vitro assay for determining vasopressin receptor activity, V2 receptor cell line (CRE-luciferase). The settings on record: CHO cell line transfected with the human V2 receptor; agonist [Arg8]-vasopressin at EC50 concentration; read-out: IC50 hV2. It counts as cell-based. The procedure:
(§1) B-1. Cellular In Vitro Assay for Determining Vasopressin Receptor Activity
(§2) The identification of agonists and antagonists of the V1a and V2 vasopressin receptors from humans, rats and dogs as well as the quantification of the activity of the compounds of the invention is carried out using recombinant cell lines. These cell lines originally derive from a hamster's ovary epithelial cell (Chinese Hamster Ovary, CHO K1, ATCC: American Type Culture Collection, Manassas, Va. 20108, USA). The test cell lines constitutively express the human, rat or dog V1a or V2 receptors. In case of the Gαq-coupled V1a receptors, cells are also stably transfected with a modified form of the calcium-sensitive photoproteins aequorin (human and rat V1a) or obelin (dog V1a), which, after reconstitution with the cofactor coelenterazine, emit light when there are increases in free calcium concentrations [Rizzuto R, Simpson A W, Brini M, Pozzan T, Nature 358, 325-327 (1992); Illarionov B A, Bondar V S, Illarionova V A, Vysotski E S, Gene 153 (2), 273-274 (1995)]. The resulting vasopressin receptor cells react to stimulation of the recombinantly expressed V1a receptors by intracellular release of calcium ions, which can be quantified by the resulting photoprotein luminescence. The Gs-coupled V2 receptors are stably transfected into cell lines expressing the gene for firefly luciferase under control of a CRE-responsible promoter. Activation of V2 receptors induces the activation of the CRE-responsive promoter via cAMP increase, thereby inducing the expression of firefly luciferase. The light emitted by photoproteins of V1a cell lines as well as the light emitted by firefly luciferase of V2 cell lines corresponds to the activation or inhibition of the respective vasopressin receptor. The bioluminescence of the cell lines is detected using a suitable luminometer [Milligan G, Marshall F, Rees S, Trends in Pharmacological Sciences 17, 235-237 (1996)].
Vasopressin V2 Receptor Cell Lines:
On the day before the assay, the cells are plated out in culture medium (DMEM/F12, 2% FCS, 2 mM glutamine, 10 mM HEPES) in 384-well microtiter plates and kept in a cell incubator (96% humidity, 5% v/v CO2, 37° C.). On the day of the assay, test compounds in various concentrations and the agonist [Arg^8]-vasopressin at EC50 concentration are added together to the wells, and plates are incubated for 3 hours in a cell incubator. Upon addition of the cell lysis reagent Triton™ and the substrate luciferin, luminescence of firefly luciferase is measured in a luminometer.
(§3) Table 1A below lists individual IC50 values for the compounds of the invention (including racemic mixtures as well as separated enantiomers) that were obtained from cell lines transfected with the human V1a or V2 receptor: […]

In a further assay the target is human V1a receptor (Homo sapiens, UniProt P37288). In words: Cellular in vitro assay for determining vasopressin receptor activity, V1a receptor cell line (photoprotein luminescence). It counts as cell-based. The settings on record: for pIC50: CHO cell line transfected with the human V1a receptor, agonist [Arg8]-vasopressin at EC50 concentration, read-out: IC50 hV1a; for ratio IC50 hV2/hV1a: selectivity ratio of the cellular IC50 values. The procedure:
as §1, §2
Vasopressin V1a Receptor Cell Lines:
On the day before the assay, the cells are plated out in culture medium (DMEM/F12, 2% FCS, 2 mM glutamine, 10 mM HEPES, 5 μg/ml coelenterazine) in 384-well microtiter plates and kept in a cell incubator (96% humidity, 5% v/v CO2, 37° C.). On the day of the assay, test compounds in various concentrations are placed for 10 minutes in the wells of the microtiter plate before the agonist [Arg^8]-vasopressin at EC50 concentration is added. The resulting light signal is measured immediately in a luminometer.
as §3

T1 sequence (P30518 whole entry): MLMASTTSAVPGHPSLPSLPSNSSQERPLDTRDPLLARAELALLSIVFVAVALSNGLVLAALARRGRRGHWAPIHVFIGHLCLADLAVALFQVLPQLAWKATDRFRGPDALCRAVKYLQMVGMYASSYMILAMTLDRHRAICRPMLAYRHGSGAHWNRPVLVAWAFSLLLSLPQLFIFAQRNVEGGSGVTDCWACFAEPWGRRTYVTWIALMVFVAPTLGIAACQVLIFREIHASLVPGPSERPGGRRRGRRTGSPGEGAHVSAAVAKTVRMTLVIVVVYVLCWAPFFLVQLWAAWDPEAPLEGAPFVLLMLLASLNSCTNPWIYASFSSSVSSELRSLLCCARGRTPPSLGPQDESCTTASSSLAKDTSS
human V1a receptor, sequence (P37288 whole entry): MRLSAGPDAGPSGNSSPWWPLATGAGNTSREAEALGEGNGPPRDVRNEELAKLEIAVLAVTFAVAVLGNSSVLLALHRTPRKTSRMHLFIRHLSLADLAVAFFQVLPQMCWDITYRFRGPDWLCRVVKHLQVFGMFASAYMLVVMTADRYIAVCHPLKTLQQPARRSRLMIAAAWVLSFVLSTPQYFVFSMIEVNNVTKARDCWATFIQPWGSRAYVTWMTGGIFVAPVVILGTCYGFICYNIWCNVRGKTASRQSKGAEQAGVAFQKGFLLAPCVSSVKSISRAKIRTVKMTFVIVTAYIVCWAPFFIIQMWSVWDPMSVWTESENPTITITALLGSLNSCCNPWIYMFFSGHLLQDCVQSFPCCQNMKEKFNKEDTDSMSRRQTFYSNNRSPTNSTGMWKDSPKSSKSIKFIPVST

As a reminder, the pIC50 is the IC50 on a negative log10 scale, so that one unit is a factor of ten. As to `NC(=O)[C@@H]1CCN(c2nc(Cn3nc(-c4ccc(Cl)cc4)n(C[C@H](O)C(F)(F)F)c3=O)nn2-c2ccccc2Cl)C1` [Example 56, (3R)-1-[1-(2-Chlorophenyl)-3-({3-(4-chlorophenyl)-5-oxo-4-[(2S)-3,3,3-trifluoro-2-hydroxypropyl]-4,5-dihydro-1H-1,2,4-triazol-1-yl}methyl)-1H-1,2,4-triazol-5-yl]pyrrolidine-3-carboxamide], the pIC50 on human V2 receptor is 8.25. Also, on human V1a receptor, the pIC50 is 9.14 and the “ratio IC50 hV2/hV1a” value stood at 7.7.
In the same order, the values of `NCCNc1nc(Cn2nc(-c3ccc(Cl)cc3)n(C[C@H](O)C(F)(F)F)c2=O)nn1-c1ccccc1Cl` [Example 70, 2-({5-[(2-Aminoethyl)amino]-1-(2-chlorophenyl)-1H-1,2,4-triazol-3-yl}methyl)-5-(4-chlorophenyl)-4-[(2S)-3,3,3-trifluoro-2-hydroxypropyl]-2,4-dihydro-3H-1,2,4-triazol-3-one] are 7.66, 9.05 and 24.4.
In the same order, the values of `CC(C)(N)CNc1nc(Cn2nc(-c3ccc(Cl)cc3)n(C[C@H](O)C(F)(F)F)c2=O)nn1-c1ncccc1F` [Example 92, 2-({5-[(2-Amino-2-methylpropyl)amino]-1-(3-fluoropyridin-2-yl)-1H-1,2,4-triazol-3-yl}methyl)-5-(4-chlorophenyl)-4-[(2S)-3,3,3-trifluoro-2-hydroxypropyl]-2,4-dihydro-3H-1,2,4-triazol-3-one] are 5.52, 7.38 and 73.5.
On the same counts, the results for `CC(=O)NCCNc1nc(Cn2nc(-c3ccc(Cl)cc3)n(C[C@H](O)C(F)(F)F)c2=O)nn1-c1ccccc1Cl` [Example 71, N-(2-{[1-(2-Chlorophenyl)-3-({3-(4-chlorophenyl)-5-oxo-4-[(2S)-3,3,3-trifluoro-2-hydroxypropyl]-4,5-dihydro-1H-1,2,4-triazol-1-yl}methyl)-1H-1,2,4-triazol-5-yl]amino}ethyl)acetamide] are 8.62, 9.36 and 5.5.
Take `CNc1nc(Cn2nc(-c3ccc(Cl)cc3)n(C[C@H](O)C(F)(F)F)c2=O)nn1-c1cccc(Cl)c1` [Example 118, 5-(4-Chlorophenyl)-2-{[1-(3-chlorophenyl)-5-(methylamino)-1H-1,2,4-triazol-3-yl]methyl}-4-[(2S)-3,3,3-trifluoro-2-hydroxypropyl]-2,4-dihydro-3H-1,2,4-triazol-3-one]: the pIC50 on human V2 receptor was 8.98. Further, on human V1a receptor, the pIC50 is 7.78 and the “ratio IC50 hV2/hV1a” value is on record as 0.1.
In the same order, the values of `NC(CNc1nc(Cn2nc(-c3ccc(Cl)cc3)n(C[C@H](O)C(F)(F)F)c2=O)nn1-c1ccccc1Cl)C(F)(F)F` (mixture of isomers) [Example 6, 2-{[5-{[2-Amino-3,3,3-trifluoropropyl]amino}-1-(2-chlorophenyl)-1H-1,2,4-triazol-3-yl]methyl}-5-(4-chlorophenyl)-4-[(2S)-3,3,3-trifluoro-2-hydroxypropyl]-2,4-dihydro-3H-1,2,4-triazol-3-one] are 8.46, 9.41 and 8.9.
In the same order, the values of `NCC(O)CNc1nc(Cn2nc(-c3ccc(Cl)cc3)n(C[C@H](O)C(F)(F)F)c2=O)nn1-c1ccccc1Cl` (mixture of isomers) [Example 11, 2-{[5-{[3-Amino-2-hydroxypropyl]amino}-1-(2-chlorophenyl)-1H-1,2,4-triazol-3-yl]methyl}-5-(4-chlorophenyl)-4-[(2S)-3,3,3-trifluoro-2-hydroxypropyl]-2,4-dihydro-3H-1,2,4-triazol-3-one] are 8.33, 9.03 and 5.0.
Take `O=C1CCCN1CCNc1nc(Cn2nc(-c3ccc(Cl)cc3)n(C[C@H](O)C(F)(F)F)c2=O)nn1-c1ccccc1Cl` [Example 45, 5-(4-Chlorophenyl)-2-{[1-(2-chlorophenyl)-5-{[2-(2-oxopyrrolidin-1-yl)ethyl]amino}-1H-1,2,4-triazol-3-yl]methyl}-4-[(2S)-3,3,3-trifluoro-2-hydroxypropyl]-2,4-dihydro-3H-1,2,4-triazol-3-one]: at human V2 receptor, the pIC50 is 7.89. Besides, on human V1a receptor, the pIC50 was 8.61 and the “ratio IC50 hV2/hV1a” value was found to be 5.3.
On the same counts, the results for `CC(C)(C)OC(=O)N1CCCC(O)(CNc2nc(Cn3nc(-c4ccc(Cl)cc4)n(C[C@H](O)C(F)(F)F)c3=O)nn2-c2ccccc2Cl)CC1` (mixture of isomers) [Example 19, tert-Butyl 4-({[1-(2-chlorophenyl)-3-({3-(4-chlorophenyl)-5-oxo-4-[(2S)-3,3,3-trifluoro-2-hydroxypropyl]-4,5-dihydro-1H-1,2,4-triazol-1-yl}methyl)-1H-1,2,4-triazol-5-yl]amino}methyl)-4-hydroxyazepane-1-carboxylate] are 7.42, 8.59 and 14.9.
In the same order, the values of `COC(C)(C)CNc1nc(Cn2nc(-c3ccc(Cl)cc3)n(C[C@H](O)C(F)(F)F)c2=O)nn1-c1ccccc1Cl` [Example 4, 5-(4-Chlorophenyl)-2-({1-(2-chlorophenyl)-5-[(2-methoxy-2-methylpropyl)amino]-1H-1,2,4-triazol-3-yl}methyl)-4-[(2S)-3,3,3-trifluoro-2-hydroxypropyl]-2,4-dihydro-3H-1,2,4-triazol-3-one] are 8.32, 8.64 and 2.1.
Regarding `NC(CNc1nc(Cn2nc(-c3ccc(Cl)cc3)n(C[C@H](O)C(F)(F)F)c2=O)nn1-c1ccccc1Cl)C(F)(F)F` (single isomer, unassigned) [Example 8], on human V2 receptor, the pIC50 was 8.77. On human V1a receptor, the pIC50 was 9.51 and the “ratio IC50 hV2/hV1a” value is reported as 5.5.
On the same counts, the results for `CN(C)c1nc(Cn2nc(-c3ccc(Cl)cc3)n(C[C@H](O)C(F)(F)F)c2=O)nn1-c1cccc(F)c1` [Example 120, 5-(4-Chlorophenyl)-2-{[5-(dimethylamino)-1-(3-fluorophenyl)-1H-1,2,4-triazol-3-yl]methyl}-4-[(2S)-3,3,3-trifluoro-2-hydroxypropyl]-2,4-dihydro-3H-1,2,4-triazol-3-one] are 8.09, 8.33 and 1.8.
On to `CC(C)(O)CNc1nc(Cn2nc(-c3ccc(Cl)cc3)n(C[C@H](O)C(F)(F)F)c2=O)nn1-c1ncccc1Cl` [Example 98, 5-(4-Chlorophenyl)-2-({1-(3-chloropyridin-2-yl)-5-[(2-hydroxy-2-methylpropyl)amino]-1H-1,2,4-triazol-3-yl}methyl)-4-[(2S)-3,3,3-trifluoro-2-hydroxypropyl]-2,4-dihydro-3H-1,2,4-triazol-3-one], for which the pIC50 on human V2 receptor was 6.84; at human V1a receptor, 8.72.
As to `CC(N)(CNc1nc(Cn2nc(-c3ccc(Cl)cc3)n(C[C@H](O)C(F)(F)F)c2=O)nn1-c1ccccc1Cl)C(F)(F)F` (mixture of isomers) [Example 27, 2-{[5-{[2-Amino-3,3,3-trifluoro-2-methylpropyl]amino}-1-(2-chlorophenyl)-1H-1,2,4-triazol-3-yl]methyl}-5-(4-chlorophenyl)-4-[(2S)-3,3,3-trifluoro-2-hydroxypropyl]-2,4-dihydro-3H-1,2,4-triazol-3-one], at human V2 receptor, the pIC50 was 8.89. In addition, on human V1a receptor, the negative logarithm of the IC50 (pIC50) was 9.46 and the “ratio IC50 hV2/hV1a” value is on record as 3.7.
As to `O=C1CCC(Nc2nc(Cn3nc(-c4ccc(Cl)cc4)n(C[C@H](O)C(F)(F)F)c3=O)nn2-c2ccccc2Cl)CN1` (single isomer, unassigned) [Example 62], the pIC50 on human V2 receptor was 8.02. Moreover, at human V1a receptor, the pIC50 is 8.89 and the “ratio IC50 hV2/hV1a” value amounted to 7.3.
